“Also recorded” adds a separate entry of the source.
Experiments:
[1] = Systemic tissue distribution of 3H-M4N 3 hours after single i.p. or i.v. injection; type: in vivo, mice
Protocol: M4N Tissue Distribution Studies Using ^3H-M4N. […] The insoluble pellet was then further extracted with EtOH.
At 3 hours post-injection, the organs and blood were harvested and weighed, and the M4N was extracted.

[2] = Tissue distribution after long-term (14 weeks) oral feeding of M4N (HPLC); type: in vivo, mice; conditions: 14 weeks continuous oral feeding of M4N food balls
Protocol: Tissue Distribution and Toxicity Analysis Following Short-Term and Long-Term Oral Feeding. For short-term feeding experiments, 30 mg of M4N dissolved in 300 μL castor oil was orally administered to each of 6 mice. At 2 h, 4 h, and 8 h post-administration time points, 2 mice were sacrificed, the organs and blood were collected, and the M4N extracted and quantitated as described below. In long-term feeding experiments, mice were fed food balls consisting of M4N dissolved in corn oil and Basal Mix (Harlan Teklad; Madison, Wis.; Cat. # TD 02273) for 14 weeks. Food balls weighed 9 g and contained 242 mg M4N each. Two mice, one male and one female, were reserved for long-term drug retention studies; and fourteen mice, both male and female, were used for long-term drug toxicity studies. At the end of feeding, mice were sacrificed, the organs and blood were collected, and the M4N extracted and quantitated as described below.
M4N Extraction and HPLC Analysis Following Oral Feeding. Organs and blood were harvested from M4N-fed mice, then frozen overnight at −80° C. Prior to freezing, gastro-intestinal organs (stomach, small intestine, colon) were cut open longitudinally and washed thoroughly with PBS to remove any contents. The following day, organs were cut into small pieces on dry ice with a razor blade, dried in a Speed-vac, then crushed into a rough powder using a mortar and pestle. Samples were extracted overnight in 100% ethanol with shaking. Samples were centrifuged and the supernatant collected. Pellets were extracted two more times in 100% ethanol overnight with shaking. The pooled ethanol extracts were evaporated on bench top for several days, then re-extracted with ethyl acetate, and dried completely in a Speed-vac. The dried samples were then analyzed quantitatively by HPLC and M4N was identified by mass spectroscopy using pure M4N as a standard.
HPLC Quantitation of M4N. Samples from a single mouse at each time point were sent to KP Pharmaceuticals (Bloomington, Ind.) for HPLC analysis. HPLC conditions were described as follows: 35%:0.1% TFA in H2O, 65%=“CAN.” The M4N standard was prepared by diluting 10.01 mg M4N in 100 mL of CAN, then sonicating for 5 min. (2002 ng/injection). The samples were prepared by adding 400 μL EtOH and sonicating for 2 min. or until complete dissolution was achieved. The injection volume for the samples was 100 μL.
The objective of the long-term feeding experiments was to measure the steady state levels of M4N in various mouse organs following continuous oral administration for 14 weeks. Food balls weighing approximately 9 g and containing approximately 280 mg M4N were continually fed to wild-type mice for 14 weeks. A single 9 g food ball is consumed by a single mouse in about 3 days, which translates to […] of M4N consumed or administered daily. […] Between 350 μg and 900 μg M4N per gram tissue was measured in the GI tract organs and the spleen; 15 μg/g to 30 μg/g M4N was measured in the lungs, pancreas, seminal vesicles, blood, and fat; and 5 μg/g to 13 μg/g M4N was measured in the heart, liver, kidneys, and bladder.

[3] = system: Hep3B hepatocellular carcinoma cells; experiment: Xenograft assay of human tumors in athymic nude mice, Hep3B; type: in vivo
From the text: (§1) Xenograft Assay of Human Tumors.
(§2) Control mice received vehicle only.

[4] = system: LNCaP prostate carcinoma cells; experiment: Xenograft assay of human tumors in athymic nude mice, LNCaP; type: in vivo, mouse
From the text: as §1, §2

[5] = system: refractory head and neck carcinomas; type: in vivo, human
From the text: Eight male subjects and one […] participated. Mean weight was 139 lbs. (range 102 to 219 lbs.).

head and neck cancer = experiment: Ex-US clinical study in head and neck cancer, daily M4N with or without G4N followed by surgical resection; type: in vivo, human
[6] = Toxicokinetic analysis of M4N serum concentration in beagle dogs; conditions: dog, in vivo
Protocol: Blood samples from the CET group animals were collected via the jugular vein on Study Day (SD) 1, SD 3, SD 6, and SD 8 at the following timepoints: predose, 0.25, 0.5, 1, 2, 4, 8, and 16 hours following the completion of the approximate 4-hour infusion.
Blood samples from the DMSO group animals were collected via the cephalic vein on SD 1, SD 3, SD 6, and SD 8 at the following timepoints: predose, 0.25, 0.5, 1, 2, 4, 8, and 16 hours following the final injection dose of M4N-DMSO.
Blood samples collected from both groups of animals were processed for plasma and serum for TK analysis.
The plasma and serum samples were sent to MedTox Laboratories, the Sponsor's designated laboratory for TK analysis. TK analysis of M4N plasma and serum concentration-time data was performed using a validated method (M200406) by MedTox Laboratories and analyzed by noncompartmental methods to obtain estimates of toxicokinetic parameters (where data allow), but not necessarily limited to, Cmax, Tmax and AUC.

Solubility character = type: physicochemical
[7] = system: human tumor xenografts (MCF-7, Hep3B, HT-29, LNCaP); conditions: all four tumor types, of 39 M4N-treated tumors, 21 days
Protocol: Xenograft Assay of Human Tumors. Athymic nude mice were implanted subcutaneously in their flanks with 2.5×10^6 Hep3B cells, 2×10^6 LNCaP cells, 1×10^7 HT-29 cells, or 2×10^6 MCF-7 cells.
M4N was dissolved in 6% Cremaphor EL, 6% ethanol, 88% saline as described in Loganzo et al. (2003). Mice received a single daily 100 μL i.p. injection containing 2 mg of M4N for 3 weeks. The control mice received an equal volume of the vehicle. Tumors were measured in two perpendicular dimensions (L and W) once every seven days, and the tumor volumes were calculated according to the following formula: V=(L×W/2)^3×π/6. The results from the individual mice were plotted as average tumor volume versus time. Statistical significance of the mean differences in tumor volume was assessed by Student's t-test.
Athymic nude mice were implanted s.c. in each flank with MCF-7 breast adenocarcinoma cells, Hep3B hepatocellular carcinoma cells, HT-29 colorectal carcinoma cells, and LNCaP prostate carcinoma cells. Most mice developed tumors in both flanks, although some developed a single tumor. When tumors attained a mean diameter of 7-8 mm, mice received for three weeks a single daily i.p. injection containing 2 mg of M4N dissolved in 100 uL Cremaphor-ethanol based solvent. Control mice received vehicle only. Tumors were measured in two perpendicular dimensions (L and W) once every seven days, and tumor volumes were calculated according to the formula: V=(L×W/2)^3×π/6.

[8] = system: HPV-16 transformed immortal mouse epithelial cells (C3); conditions: intratumor injection; cited from earlier work
[9] = Hep 3B, of 7 M4N-treated tumors, 21 days i.p. treatment
[10] = LNCaP, of 11 M4N-treated tumors, 21 days i.p. treatment
[11] = patients that completed the treatment

For COc1ccc(C[C@@H](C)[C@@H](C)Cc2ccc(OC)c(OC)c2)cc1OC [M4N, meso-1,4-bis(3,4-dimethoxyphenyl)-2,3-dimethylbutane], the “M4N detected in tissue” value ([1]; heart or blood, 3 hours post-injection) was “Little or no M4N”, the “M4N present in tissue” value ([1]; liver and fat, 3 hours post-injection) was “Significant quantities” and the “Toxicity of systemic i.p. and i.v. injection” value ([1]; mice, single injection) was “no apparent toxicity”. The “M4N” value ([2]; Bladder) was 6.24 µg/g, the “M4N” value ([2]; Blood) was 23.13 µg/g and the “M4N” value ([2]; Caecum) was 440.23 µg/g. The “M4N” value ([2]; Fat) was 17.41 µg/g, the “M4N” value ([2]; Heart) was 12.62 µg/g and the “M4N” value ([2]; Kidneys) was 8.33 µg/g. The “M4N” value ([2]; Lg. Intestine) was 350.88 µg/g, the “M4N” value ([2]; Liver) was 5.89 µg/g and the “M4N” value ([2]; Lungs) was 23.09 µg/g. For the same compound, the “M4N” value ([2]; Pancreas) was 28.81 µg/g, the “M4N” value ([2]; Seminal Vesicles) was 16.79 µg/g and the “M4N” value ([2]; Small Intestine) was 906.27 µg/g. For the same compound, the “M4N” value ([2]; Spleen) was 302.78 µg/g, the “M4N” value ([2]; Stomach) was 409.27 µg/g and the “Tumor Volume Increase (%) - 21 Days Treatment, M4N-Treatment” value ([3]; Hep 3B xenograft, 2 mg M4N i.p. daily for 3 weeks) was 113%. The “Ratio of Mean M4N-Treated Tumor Size to Control Tumor Size” value ([3]; Hep 3B xenograft, 2 mg M4N i.p. daily, 21 days) was 19.3%, the “Reduction in mean tumor volume versus control” value ([3]; Hep 3B, after 21 days systemic M4N treatment) was 80% and the “DOTV: number of tumors with decrease in volume from the original tumor volume” value (“DOTV: number of tumors with decrease” for short) [3, 9] was 2. The “IOTV: number of tumors with increase in volume from the original tumor volume” value (shortened to “IOTV: number of tumors with increase”) [3, 9] was 5, the “Tumor Volume Increase (%) - 21 Days Treatment, M4N-Treatment” value ([4]; LNCaP xenograft, 2 mg M4N i.p. daily for 3 weeks) was 25% and the “Ratio of Mean M4N-Treated Tumor Size to Control Tumor Size” value ([4]; LNCaP xenograft, 2 mg M4N i.p. daily, 21 days) was 46.3%. For the same compound, the “Reduction in mean tumor volume versus control” value ([4]; LNCaP, after 21 days systemic M4N treatment) was 53%, the “DOTV: number of tumors with decrease” value [4, 10] was 9 and the “IOTV: number of tumors with increase” value [4, 10] was 2. The “Growth of LNCaP xenograft tumors” value ([4]; systemic oral administration of M4N) was “effectively suppresses the growth”, the “Damage to healthy tissue surrounding the tumor” value ([5]; in vivo) was “No damage” and the “Dose delivered without drug-related toxicity” value ([5]; in vivo) was “up to 495 mg weekly”. For the same compound, the “Other adverse events attributed to M4N” value ([5]; in vivo) was “No other adverse events”, the “Relation of SAEs to study medication” value ([5]; in vivo) was “unlikely or not related to study medication” and the “Serious Adverse Events reported” value ([5]; in vivo) was 6. The “Subjects with Serious Adverse Events” value ([5]; in vivo) was 4 subjects, the “Subjects with severe radiating pain on injection” value ([5]; in vivo) was “One” and the “Subjects with sporadic mild elevations in LFTs” value ([5]; in vivo) was 2 subjects. For the same compound, the “Subjects with drug related tumor necrosis after injection” value ([5]; of 6 subjects receiving three doses) was 5 subjects, the “Patients with radiologically confirmed tumor volume reduction” value ([5]; of the six patients completing three doses) was “three” and the “Efficacy in terms of induction of necrosis” value [5, 11] was “over 80%”. For the same compound, the “Dose delivered without drug-related toxicity” value (head and neck cancer; for up to five days, with or without concomitant G4N 20 mg per day) was at most 20 mg per day, the “Patients remaining disease free” value (head and neck cancer; long-term follow ups, M4N with or without G4N, then surgical resection) was 64% and the “Efficacy in terms of induction of necrosis” value (head and neck cancer; [11]) was “over 80%”. For the same compound, the “Blood levels of M4N achieved with minimal toxicity” value [6] was “up to 14,000 ng/ml”, the “Solubility in dimethyl sulfoxide” value (Solubility character) was “soluble in dimethyl sulfoxide” and the “Water solubility / hydrophilic or lipophilic character” value (Solubility character) was “hydrophobic or lipophilic”. The “DOTV: number of tumors with decrease” value [7] was 21, the “IOTV: number of tumors with increase” value [7] was 18 and the “IOTV: share of tumors with increase in volume” value [7] was “(46%)”. For the same compound, the “Suppression of tumor growth / tumoricidal activity” value [8] was “substantial tumoricidal activity; also recorded: some evidence of suppression of tumor growth”.

From patent US7728036B2, “Methods for delivery of catecholic butanes for treatment of tumors” (priority 2003, dated 2010)
